Consider 1 substance from patent publication USRE48461E1, “Modulation of androgen receptor expression” (Ionis Pharmaceuticals, Inc., priority 2012, dated 2021).

Holding throughout (format): cell-based, human
The test system of one series is KLK3 mRNA. In words: KLK3 mRNA (AR target gene) in C4-2B MR cells.
The next series has as its system KLK2 mRNA. Description: KLK2 mRNA (AR target gene) in C4-2B MR cells.
The subject of another series is total AR mRNA. Description: Total (full-length) AR mRNA in C4-2B MR cells, free uptake. The conditions noted are these: free uptake, 24 hrs. The method, then:
Cells were plated at a density of 40,000 cells per well in 96-well plates and cultured in RPMI1640 medium with 10% fetal bovine serum. […] ISIS 549372, ISIS 549458, ISIS 549434, and ISIS 554221 were each added at 0.04 μM, 0.20 μM, 1.00 μM, and 5.00 μM concentrations of antisense oligonucleotide to culture media for free uptake by the cells. […] After a treatment period of 24 hrs, total AR mRNA levels were measured by quantitative real-time PCR using primer probe set RTS3559.

For another series, the system named is C4-2B MR cells. Description: Proliferation of MDV3100-resistant C4-2B cells (CellTiter 96). The conditions noted are these: 6 days. The procedure: ISIS 549372, ISIS 549434, ISIS 549458, and ISIS 554221 were each added to the culture media at 0.04 μM, 0.20 μM, 1.00 μM, and 5.00 μM concentration of antisense oligonucleotide. ISIS 347526 was included as a negative control. After a treatment period of 6 days, the proliferative capacity of the cancer cells was measured with using CellTiter 96® AQueous One Solution Cell Proliferation kit (Promega), following the manufacturer's instructions. Results are presented in Table 41 as percent inhibition of proliferation, relative to non-treated cells.

e = 2'-O-(2-methoxyethyl) (MOE); d = 2'-deoxy (DNA)

For “347526 (TCTTATGTTTCCGAACCGTT; sugars from the 5' end e5 d10 e5, backbone and methylation of C not given here) [compound 347526]”, the “Percent inhibition of KLK3 mRNA in C4-2B MR cells” value in the series with KLK3 mRNA (0.04 μM) came out at 5%; with KLK3 mRNA (0.20 μM) it was 38%; with KLK3 mRNA (1.00 μM) it was 42%; in the series on KLK3 mRNA (5.00 μM) it was 16%. For the same substance, the “Percent inhibition of KLK2 mRNA in C4-2B MR cells” value is listed as 28% in the series on KLK2 mRNA (0.04 μM), 29% in the series with KLK2 mRNA (0.20 μM), 23% in the series on KLK2 mRNA (1.00 μM) and 22% with KLK2 mRNA (5.00 μM). Besides, the “Percent inhibition of full-length AR mRNA in C4-2B MR cells” value in the series on total AR mRNA (0.04 μM) was 28%; with total AR mRNA (0.20 μM), 35%; in the series with total AR mRNA (1.00 μM), 31%; with total AR mRNA (5.00 μM), 17%. Besides, the “Percent inhibition of C4-2B MR cell proliferation” value in the series with C4-2B MR cells (0.04 μM) was determined as 11%; in the series on C4-2B MR cells (0.20 μM), 22%; with C4-2B MR cells (1.00 μM), 7%; in the series on C4-2B MR cells (5.00 μM), 16%.
